US6613317B1, “Volatile attractants for diabrotica species” (priority 1988, dated 2003)

How the values were obtained:
[1] = tested on: northern corn rootworm (NCR); assay: Sticky trap attraction in corn, phenylethanol analogues (Example 6); type: in vivo, Diabrotica barberi; details: four replicates; for Mean number of NCR per trap (± standard deviation): 24 hour
Outline: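 Field sticky traps (TangleTrap-coated cartons) baited with 100 mg or 100 μL test chemical on cotton wicks unless otherwise indicated; untreated wicks as controls. Four replicates per treatment, spaced 10 m apart on 1 m posts at corn field edges. Readout: mean beetles caught per trap after ~24 h; log-transformed ANOVA with Duncan's test, P=0.05.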

NCR [2] = details: in vivo; cited from earlier work
SCR = assay: Limit of response rating of squash blossom volatiles on sticky traps (Example 5); type: in vivo, Diabrotica undecimpunctata howardi; details: 24 hour; four replicate traps; 0.01 mg to 200 mg
Outline: (§1)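 Adult Diabrotica beetles were tested against cylindrical sticky traps baited with cotton wicks holding 0.01 mg to 200 mg of individual Cucurbita maxima blossom volatiles. Response limit rated by trap catch.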

WCR = assay: as above; type: in vivo, Diabrotica virgifera virgifera; details: 24 hour; four replicate traps; 0.01 mg to 200 mg
Outline: as §1

[3] = tested on: western corn rootworm (WCR); assay: Sticky trap attraction in corn, phenylethanol analogues (Example 6); type: in vivo, Diabrotica virgifera virgifera; details: Table 16; 100 mg per trap; four replicates; 24 hour
Procedure: Test chemicals (purchased from Aldrich Chemical Co.; Milwaukee, Wis.) were applied by capillary micropipettes to cotton dental wicks that were attached to tops of 1.0 liter cylindrical paper cartons covered with TangleTrap™, Grand Rapids, Mich. The trapping techniques used were as previously described in Example 1. Unless otherwise indicated, all treatments were made at a dosage of 100 mg or 100 μL of attractant per trap. Control traps had untreated wicks. Four replicates of treated and untreated traps were positioned randomly 10 meters apart on top of 1 m high posts along the edges of 25-50 ha. fields of hybrid corn (Zea mays), infested with adult NCR, SCR, and WCR beetles. Several experiments detailed in the Tables were made in a 0.4 ha plot of sweet corn (Illini X-tra Sweet).
Attraction of Diabrotica species adults of the sticky traps was measured by the mean number of beetles caught after 1 day (ca. 24 hours) exposure. The significance of the treatments was determined by analysis of variance and the individual means were separated by Duncan's multiple range test (Statistical Package for the Social Sciences, Nie, et al., 2nd. ed. McGraw-Hill, New York (1975). The data was logarithmically transformed for statistical analysis. Means and standard deviations are presented for the untransformed data. Significance levels were set at P=0.05 for all statistical analyses.

NCR [4] = assay: Attraction to baited traps relative to controls (summary); type: in vivo, Diabrotica barberi; details: summary statement
Source text: 4-Methylphenylethanol, 4-chlorophenylethanol, 4-fluorophenylethanol, phenylethanol, phenylpropanol, 4-methoxyphenylethanol, 3-methoxyphenylethanol, 2-methoxyphenylethanol, 4-methoxyphenylpropanol, phenylethylamine, and phenylpropylamine attract NCR at rates approximately 5-50 times controls.

[5] = day 1 after single 100 mg dosage on cotton wick
[6] = day 2 after single 100 mg dosage on cotton wick
[7] = day 3 after single 100 mg dosage on cotton wick
[8] = day 4 after single 100 mg dosage on cotton wick
[9] = day 5 after single 100 mg dosage on cotton wick
[10] = day 6 after single 100 mg dosage on cotton wick
[11] = day 7 after single 100 mg dosage on cotton wick
[12] = day 8 after single 100 mg dosage on cotton wick
[13] = day 11 after single 100 mg dosage on cotton wick

SMILES	Mean number (control subtracted) of NCR per trap [1, 5]	Mean number (control subtracted) of NCR per trap [1, 6]	Mean number (control subtracted) of NCR per trap [1, 7]	Mean number (control subtracted) of NCR per trap [1, 8]	Mean number (control subtracted) of NCR per trap [1, 9]	Mean number (control subtracted) of NCR per trap [1, 10]	Mean number (control subtracted) of NCR per trap [1, 11]	Mean number (control subtracted) of NCR per trap [1, 12]	Mean number (control subtracted) of NCR per trap [1, 13]	LR for NCR, most effective volatile attractant yet identified (NCR [2])	Attractant Rating SCR (by limit of response) (SCR)	Attractant Rating WCR (by limit of response) (WCR)	Mean number of NCR per trap (± standard deviation) ([1]; Table 16, 100 mg per trap)	Mean number of NCR per trap (± standard deviation) ([1]; Table 18, 1 mg)	Mean number of NCR per trap (± standard deviation) ([1]; Table 18, 3 mg)	Mean number of NCR per trap (± standard deviation) ([1]; Table 18, 10 mg)	Mean number of NCR per trap (± standard deviation) ([1]; Table 18, 30 mg)	Mean number of NCR per trap (± standard deviation) ([1]; Table 20, 100 mg per trap)	Mean number of WCR per trap (±standard deviation) [3]	rate of attraction of NCR relative to controls (NCR [4])
C=CCc1ccc(O)c(OC)c1 [XXIV, eugenol]	88.2 per trap	67.3 per trap	14.3 per trap	18.0 per trap	20.7 per trap	29.9 per trap	30.2 per trap	35.5 per trap	10.0 per trap	10 mg										
OCC=Cc1ccccc1 [XVIII, cinnamyl alcohol]	52.0 per trap	65.3 per trap	17.3 per trap	19.5 per trap	17.7 per trap	7.7 per trap	10.4 per trap	11.0 per trap	9.8 per trap		+2 (10-30)	+1 (30-100)	50.7 ± 50.9b per trap	3.5 ± 2.4a per trap	4.0 ± 0.8ab per trap	8.5 ± 2.1bc per trap	15.2 ± 4.2c* per trap	127.0 ± 24.2b per trap	4.0 ± 1.6a per trap	5-20 times
